Laboratory results reported in patent publication US20070253913A1, “Aerosol formulations for delivery of dihydroergotamine to the systemic circulation via pulmonary inhalation” (priority 2003, published 2007).
“And” between values parts separate entries of the source, which are not always exact repeats. Equal values may be shown once. Where a name gives a salt, the structure may show the parent alone. Read-outs that look alike come from different tables or passages of the source.

Tests used:
[1] = cited from earlier work
[2] = Pharmacokinetics of DHE in dog serum after DPI inhalation vs intravenous bolus; assay type: in vivo, dogs; settings: for Tmax: dog serum, inhalation 1 mg DPI
Experimental: In this study, dogs were administered the DHE particles via the DPI format (total dose 1 mg) and by intravenous bolus (total dose 0.5 mg) and DHE levels were measured in dog serum at defined intervals.

[3] = Powder stability with accelerated environmental aging, HPLC assay; assay type: physicochemical
Experimental: (§1) DHE particle were produced by the SEDS super critical fluid process as described by Palakadoty et al. (US Application 20030109421). The DHE particulate powder produced was assayed by HPLC to determine purity and the mass mean aerodynamic diameter was determined using an Aerosizer instrument under standard operating conditions known in the art. […] The DHE particulate powder was subject to standard accelerated aging conditions of: (i) 3 months at 40 degrees Celsius and 75% relative humidity; and (ii) 25 degrees Celsius and 60% relative humidity. The DHE particles were placed in a tightly sealed dark glass container and placed in the appropriate incubation ovens for the 3 month period. At the end of the three month period, purity and particle size were again assessed as discussed above.

[4] = Powder stability with accelerated environmental aging, particle size by Aerosizer; assay type: physicochemical; settings: MMAD
Experimental: as §1

SMILES	bioavailability ([1]; pulmonary delivery)	Tmax ([2]; individual dogs) [min]	blood levels of DHE compared to intravenous delivery ([2]; dog, DPI 1 mg vs iv bolus 0.5 mg, FIG. 1)	time to measurable levels of DHE in the blood after inhalation ([2]; dog, DPI 1 mg, FIG. 1) [s]	bioavailability ([2]; dog, in vivo, dog, inhalation 1.0 mg vs iv bolus 0.5 mg, n=3, read-out: F (bioavailability) Average (%)) [%]	Tmax ([2]; dog, in vivo, inhaled or intranasal, 1 mg, individual dogs, read-out: Tmax (converted)) [min]	Tmax ([2]; dog, in vivo, inhaled or intranasal, 1 mg, n=3, read-out: Tmax Average (converted)) [min]	F (bioavailability) (%) ([2]; dog, inhalation 1.0 mg vs iv bolus 0.5 mg, individual dogs)	bioavailability, administered dose reaching the systemic circulation ([1]; in vivo)	HPLC Assay (%) ([3]; 3 Months @ 25 C./60% RH, sealed dark glass container)	HPLC Assay (%) ([3]; 3 Months @ 40 C./75% RH, sealed dark glass container)	HPLC Assay (%) ([3]; Initial, on production)	Particle Size (microns by Aerosizer) ([4]; 3 Months @ 25 C./60% RH) [microns]	Particle Size (microns by Aerosizer) ([4]; 3 Months @ 40 C./75% RH) [microns]	Particle Size (microns by Aerosizer) ([4]; Initial, on production) [microns]
CN1C[C@H](C(=O)N[C@]2(C)O[C@@]3(O)[C@@H]4CCCN4C(=O)[C@H](Cc4ccccc4)N3C2=O)C=C2c3cccc4[nH]cc(c34)C[C@H]21 [ergotamine tartrate]	up to 92%														
CN1C[C@H](C(=O)N[C@]2(C)O[C@@]3(O)[C@@H]4CCCN4C(=O)[C@H](Cc4ccccc4)N3C2=O)C[C@@H]2c3cccc4[nH]cc(c34)C[C@H]21 [DHE, dihydroergotamine]		10	maintained at higher levels over an extended period of time	≤ 30	52	5	6.7	27% and 49% and 80%	2-10%	101.0	102.0	98.3	1.044	1.091	1.131
